Data as given in ChEMBL document CHEMBL1156236, “Trypanoside, anti-tuberculosis, leishmanicidal, and cytotoxic activities of tetrahydrobenzothienopyrimidines” (Bioorg Med Chem, 2010).

Tests used:
[1] = tested on: NCI-H460; assay: Cytotoxicity against human NCI-H460 cells; type: functional
[2] = Cytotoxicity against BALB mouse 3T3 cells; type: cell-based; conditions: BALB 3T3 cells
[3] = tested on: DU-145; assay: Cytotoxicity against human DU145 cells; type: functional
[4] = tested on: K562; assay: Cytotoxicity against human K562 cells; type: functional
[5] = tested on: M14; assay: Cytotoxicity against human M14 cells; type: functional
[6] = tested on: MCF7; assay: Cytotoxicity against human MCF7 cells; type: functional
[7] = tested on: HT-29; assay: Cytotoxicity against human HT-29 cells; type: functional
[8] = tested on: Mycobacterium tuberculosis; assay: Antitubercular activity against Mycobacterium tuberculosis H37Rv ATCC 27294 after 7 days by microplate alamar blue assay; type: functional; conditions: H37Rv ATCC 27294, 168 h
[9] = Selectivity index, ratio of IC50 for BALB/c mouse macrophages to IC50 for Leishmania amazonensis MHOM/BR/76/LTB-012
[10] = tested on: Trypanosoma cruzi; assay: Antitrypanosomal activity against Trypanosoma cruzi tulahuen C4 trypomastigotes infected in african green monkey Vero cells assessed as CPRG cleavage after 120 hrs by microplate reader; type: functional, organism-based
[11] = Cytotoxicity against BALB/c mouse macrophages after 48 hrs by trypan blue dye exclusion method; type: cell-based; conditions: Macrophage
[12] = tested on: Leishmania amazonensis; assay: Antileishmanial activity against Leishmania amazonensis MHOM/BR/76/LTB-012 amastigotes infected BALB/c mouse macrophages after 48 hrs by MTT assay; type: functional, organism-based; conditions: MHOM/BR/76/LTB-012, 48 h
[13] = Selectivity index, ratio of IC50 for african green monkey Vero cells to IC50 for Trypanosoma cruzi tulahuen C4; conditions: vero
[14] = tested on: Vero; assay: Cytotoxicity against african green monkey Vero cells after 72 hrs by MTS assay; conditions: Chlorocebus sabaeus, Vero, 72 h

## O=c1[nH]cc(F)c(=O)[nH]1 [FLUOROURACIL]
[1]
  GI50: 2.3 µM
[2]
  GI50: < 3 µM
[3]
  GI50: 5.3 µM
[4]
  GI50: 89.9 µM
[5]
  GI50: 32.4 µM
[6]
  GI50: 4.5 µM

## Cc1ccc(/C=N/Nc2ncnc3sc4c(c23)CCCC4)cc1
[1]
  GI50: 133 µM
[7]
  GI50: > 170 µM
[8]
  MIC: > 250 µM
[9]
  Ratio IC50: 0.5
[10]
  IC50: > 25 µM
[2]
  GI50: 37.5 µM
[3]
  GI50: > 170 µM
[11]
  IC50: 19.4 µM
[4]
  GI50: 7.1 µM
[5]
  GI50: > 170 µM
[12]
  IC50: 42.6 µM
[6]
  GI50: 12.9 µM

## C(=N\Nc1ncnc2sc3c(c12)CCCC3)/c1ccncc1
[1]
  GI50: 169 µM
[7]
  GI50: 153 µM
[8]
  MIC: > 300 µM
[9]
  Ratio IC50: 0.7
[10]
  IC50: > 25 µM
[2]
  GI50: 83.2 µM
[3]
  GI50: 83.9 µM
[11]
  IC50: 154 µM
[4]
  GI50: 109 µM
[5]
  GI50: > 150 µM
[12]
  IC50: 233 µM
[6]
  GI50: 83.9 µM

## N#Cc1ccc(/C=N/Nc2ncnc3sc4c(c23)CCCC4)cc1
[1]
  GI50: > 170 µM
[7]
  GI50: > 170 µM
[8]
  MIC: > 300 µM
[9]
  Ratio IC50: 5
[10]
  IC50: > 25 µM
[2]
  GI50: 150 µM
[3]
  GI50: > 170 µM
[11]
  IC50: 162 µM
[4]
  GI50: > 170 µM
[5]
  GI50: > 170 µM
[12]
  IC50: 32.3 µM
[6]
  GI50: 102 µM

## COc1cc(/C=N/Nc2ncnc3sc4c(c23)CCCC4)ccc1O
[12]
  IC50: 7.2 µM

## CC1CS(=O)(=O)CCN1/N=C/c1ccc([N+](=O)[O-])o1 (configuration not stated) [NIFURTIMOX]
[13]
  selectivity ratio: 20.8
[10]
  IC50: 4.5 µM
[14]
  IC50: 94 µM

## O=[N+]([O-])c1ccc(/C=N/Nc2ncnc3sc4c(c23)CCCC4)cc1
[1]
  GI50: > 170 µM
[7]
  GI50: > 170 µM
[8]
  MIC: > 250 µM
[9]
  Ratio IC50: 5.2
[10]
  IC50: > 25 µM
[2]
  GI50: > 170 µM
[3]
  GI50: > 170 µM
[11]
  IC50: 199 µM
[4]
  GI50: > 170 µM
[5]
  GI50: > 170 µM
[12]
  IC50: 38.5 µM
[6]
  GI50: > 170 µM

## COc1cc(/C=N/Nc2ncnc3sc4c(c23)CCCC4)cc(OC)c1O
[1]
  GI50: > 170 µM
[7]
  GI50: > 170 µM
[8]
  MIC: > 250 µM
[9]
  Ratio IC50: 3
[10]
  IC50: > 25 µM
[2]
  GI50: 27.3 µM
[3]
  GI50: 27.2 µM
[11]
  IC50: 121 µM
[4]
  GI50: > 170 µM
[5]
  GI50: > 170 µM
[12]
  IC50: 40.8 µM
[6]
  GI50: > 170 µM

## O=[N+]([O-])c1ccccc1/C=N/Nc1ncnc2sc3c(c12)CCCC3
[1]
  GI50: 52.9 µM
[7]
  GI50: > 170 µM
[8]
  MIC: > 250 µM
[10]
  IC50: > 25 µM
[2]
  GI50: > 170 µM
[3]
  GI50: 103 µM
[11]
  IC50: > 200 µM
[4]
  GI50: > 170 µM
[5]
  GI50: > 170 µM
[12]
  IC50: 108 µM
[6]
  GI50: 52 µM

## COc1cc(/C=N/Nc2ncnc3sc4c(c23)CCCC4)cc(OC)c1OC
[1]
  GI50: 28.3 µM
[7]
  GI50: 11.4 µM
[8]
  MIC: > 250 µM
[9]
  Ratio IC50: 1.2
[10]
  IC50: > 25 µM
[2]
  GI50: 22.5 µM
[3]
  GI50: 22.5 µM
[11]
  IC50: 8.9 µM
[4]
  GI50: 4.7 µM
[5]
  GI50: 15.6 µM
[12]
  IC50: 7.2 µM
[6]
  GI50: 10.5 µM

## c1ccc(C(=NNc2ncnc3sc4c(c23)CCCC4)c2ccccc2)cc1
[1]
  GI50: > 170 µM
[7]
  GI50: > 170 µM
[8]
  MIC: > 250 µM
[9]
  Ratio IC50: 0.9
[10]
  IC50: > 25 µM
[2]
  GI50: > 170 µM
[3]
  GI50: > 170 µM
[11]
  IC50: 156 µM
[4]
  GI50: > 170 µM
[5]
  GI50: > 170 µM
[12]
  IC50: 182 µM
[6]
  GI50: > 170 µM

## C[C@@H]1[C@H](O)[C@@H](C)/C=C/C=C/C=C/C=C/C=C/C=C/C=C/[C@H](O[C@@H]2O[C@H](C)[C@@H](O)[C@H](N)[C@@H]2O)C[C@@H]2O[C@](O)(C[C@@H](O)C[C@@H](O)[C@H](O)CC[C@@H](O)C[C@@H](O)CC(=O)O[C@H]1C)C[C@H](O)[C@H]2C(=O)O [AMPHOTERICIN B]
[9]
  Ratio IC50: 54
[11]
  IC50: 5.4 µM
